Measured values as given in ChEMBL document CHEMBL1150500, “Epoxidation of 6,7- and 10,11-oxidosqualenes by the squalene epoxidase present in rat liver microsomes” (Bioorg Med Chem Lett, 1993).

Target: Squalene monooxygenase (Rattus norvegicus, UniProt P52020)
Assay: Compound was tested for its inhibitory activity against squalene epoxidase from rat liver microsomes

Squalene monooxygenase, sequence (P52020 whole entry): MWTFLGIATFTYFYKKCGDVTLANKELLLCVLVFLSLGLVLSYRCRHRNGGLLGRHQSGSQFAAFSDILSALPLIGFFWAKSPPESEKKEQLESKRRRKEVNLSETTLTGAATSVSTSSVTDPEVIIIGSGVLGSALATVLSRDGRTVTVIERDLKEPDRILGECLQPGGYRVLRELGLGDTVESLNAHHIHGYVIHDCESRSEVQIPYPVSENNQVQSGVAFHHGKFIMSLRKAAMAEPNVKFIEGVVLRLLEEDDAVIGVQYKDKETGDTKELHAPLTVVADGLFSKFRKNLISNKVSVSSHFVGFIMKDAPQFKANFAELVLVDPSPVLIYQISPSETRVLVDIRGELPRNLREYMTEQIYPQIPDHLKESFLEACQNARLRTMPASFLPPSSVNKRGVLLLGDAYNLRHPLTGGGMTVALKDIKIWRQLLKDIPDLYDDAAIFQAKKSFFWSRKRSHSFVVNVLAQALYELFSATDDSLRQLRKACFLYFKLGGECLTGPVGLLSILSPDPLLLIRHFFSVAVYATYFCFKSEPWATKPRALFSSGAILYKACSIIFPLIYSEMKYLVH

IC50 [µM] | SMILES
50.9 | CC(C)=CCC/C(C)=C/CC/C(C)=C/CCC1OC1(C)CC/C=C(\C)CCC=C(C)C (centres undefined)
31.8 | CC(C)=CCC/C(C)=C/CC/C(C)=C/CC/C=C(\C)CCC1OC1(C)CCC=C(C)C (centres undefined)
13 | CC(C)=CCC/C(C)=C/CC/C(C)=C/CCC1OC1(C)CC/C=C(\C)CC[C@@H]1OC1(C)C (some centres undefined)
0.11 | CC(C)=CCCC1(C)OC1CC/C(C)=C/CC/C=C(\C)CC/C=C(\C)CC[C@@H]1OC1(C)C (some centres undefined)
